Source: patent US20160213680A1, “COMPOSITIONS AND METHODS USING FLUMAZENIL WITH OPIOID ANALGESICS FOR TREATING PAIN AND/OR ADDICTION, AND WITH DIVERSION AND/OR OVERDOSE MITIGATION” (SOTERIAN PHARMACEUTICALS, LLC, priority 2015, published 2016)
Several values for one entry are separate records, joined by “and”; a condition that tells them apart may be missing. Equal entries are not always repeated. Entries after “also recorded” stand apart in the source; their conditions may differ.

Columns and labels:
[1] = tested on: patients who had been taking methadone; assay: Example 2: conversion of methadone patients to the sublingual tablet (withdrawal, VAS pain); format: in vivo, human; details: patients withdrawing from methadone
Protocol: […]. These patients took an average of 9 days to convert before methadone withdrawal was completely eliminated.
Patients who had been taking 50 mg to 140 mg per day of methadone were first titrated down with Ultram (e.g., via 2 to 3 tablets of Ultram 50 mg administered every 6 hours) for four days. Following this titration period, the patients were given injections containing 0.3 mg buprenorphine and 60 mg torodol to see if further time was needed before the sublingual tablets comprising buprenorphine and flumazenil could be started without risk of precipitating withdrawal. […]. Stomach tightness, nausea, and restless legs were the most common complaints from these patients.

[2] = tested on: sedation associated with benzodiazepines (midazolam); format: in vivo, human
Protocol: Subjects were pretreated with about 10 mg flumazenil orally. After 30 minutes midazolam (a benzodiazepine) 0.3 mg was administered and repeated every 30 minutes until sedative effects were noticed by the subject or reported by the investigator. Oral flumazenil of about 10 mg was able to block midazolam for an average of 150 minutes.
This example study was repeated with about 30 mg flumazenil orally (2 subjects) and sublingually (3 subjects). Allowing the sublingual flumazenil treatment option was thought to avoid first pass hepatic metabolism and potentially increase Cmax (maximum [or peak] serum concentration), shorten Tmax (time at which the Cmax is observed) and is expected to increase the area under the curve for flumazenil in the serum. In this dose range study subjects were again pretreated with about 30 mg flumazenil orally or sublingually. After 30 minutes midazolam (Versed) 0.3 mg was administered and repeated every 30 minutes until sedative effects were noticed by the subject or reported by the investigator.

[3] = Tablet pilot studies of flumazenil tolerability; format: in vivo, human; details: tablet formulations, compared with IV flumazenil history
Text: Note, several historical physiological ideas about IV flumazenil may be much different compared to the formulations of flumazenil used in the various pharmaceutical dosage units. […] When patients are currently prescribed opiates, such patients are instructed to avoid benzodiazepines and the pharmaceutical dosage units disclosed herein may make physicians more confident that such patients will remain compliant with that instruction.

[4] = in vivo, cited from earlier work

CCOC(=O)c1ncn2c1CN(C)C(=O)c1cc(F)ccc1-2 [flumazenil, ethyl 8-fluoro-5-methyl-6-oxo-5,6-dihydro-4H-benzo[f]imidazo[1,5-a][1,4]diazepine-3-carboxylate]
effect of flumazenil on the pain and withdrawal relieving effect of buprenorphine [1]: noticeably enhanced
duration of blockade from Versed ([2]; about 3 mg IV flumazenil): 60 min
duration of midazolam blockade / protection from sedation (average) ([2]; about 10 mg flumazenil orally, midazolam 0.3 mg every 30 minutes): 150 min
sedation at the 330 minute interval ([2]; about 30 mg flumazenil orally or sublingually, all subjects): measurable (but reduced) sedation
duration of midazolam blockade, individual subjects ([2]; about 30 mg flumazenil orally, the 2 subjects): 240 min and 270 min
time for flumazenil to clear the serum (average) ([2]; human, in vivo, po): about 3 hours
anxiety, panic attacks, dysphoria, disorientation [3]: does not cause anxiety nor panic attacks; also recorded: no dysphoria nor disorientation
oral and/or gastrointestinal bioavailability ([4]; po): very low
elimination half-life [4]: 1.4 h

Cc1ncc2n1-c1ccc(Cl)cc1C(c1ccccc1F)=NC2 [midazolam]
time to maximum sedation after IV midazolam dosing ([2]; midazolam 0.3 mg IV): 5 min
